COC1=CC(=O)C[C@@H](C)[C@]12Oc1c(Cl)c(OC)cc(OC)c1C2=O
solubility (mole fraction)
Conditions | 278.15 K | 283.15 K | 288.15 K | 293.15 K | 298.15 K | 303.15 K | 308.15 K | 313.15 K | 318.15 K | 323.15 K
in DMF | 0.00484 | 0.00541 | 0.0061 | 0.00703 | 0.00811 | 0.00933 | 0.0106 | 0.012 | 0.0136 | 0.0155
in NMP | 0.0324 | 0.0344 | 0.0369 | 0.0394 | 0.0425 | 0.045 | 0.0479 | 0.0511 | 0.0541 | 0.0573
in acetonitrile | 0.00331 | 0.00369 | 0.00418 | 0.00473 | 0.00536 | 0.00611 | 0.00697 | 0.00795 | 0.00899 | 0.0102
in ethanol | 0.000218 | 0.000255 | 0.000303 | 0.00037 | 0.000446 | 0.000542 | 0.00065 | 0.000779 | 0.000928 | 0.00112
in methanol | 0.000246 | 0.00028 | 0.000332 | 0.000413 | 0.000517 | 0.000632 | 0.00077 | 0.000929 | 0.00111 | 0.00133
in water | 1.93e-07 | 2.5e-07 | 3.08e-07 | 3.86e-07 | 4.7e-07 | 5.7e-07 | 7.18e-07 | 8.91e-07 | 1.1e-06 | 1.36e-06
